Assays:
[1] = Cell toxicity
[2] = target: T1, NK-1 receptor (Homo sapiens, UniProt P25103); experiment: Tango GPCR cell-based assay, TACR1-bla U2OS cells, NK-1 receptor inhibitors; details: 1 nM SAR9 Substance P agonist
T1 construct: host or cells: U2OS (Tango TACR1-bla)
Method: Various known high through-put screening assays can also be used to determine the inhibitory effects of a material on the NK-1 receptors.
One exemplary assay is the Tango™ G-Protein Coupled Receptors (GPCR) cell-based assays by Invitrogen. First, TACR1-bla U2OS cells (from Invitrogen) are cultured in McCoy's medium. The cultured cells are then plated in DMEM into 96-well plates (15,125 cells/well in 90 uL/well). After 16-24 hours, the cells are treated with test materials or positive control antagonist (which is 100 nM Aprepitant) and then incubated for 30-60 minutes at 37° C. in 5% CO2. Subsequently, the cells are treated with 1 nM SAR9 Substance P agonist and incubated again for 5 hours at 37° C. in 5% CO2. The plates are removed from the incubator and equilibrated at room temperature for 15 minutes. During the equilibration step, the LiveBlazer substrate detection solution (from Invitrogen) is prepared. Six times of substrate mixture is added to each well, followed by incubating the plates in the dark at room temp for 2 hours. The plates are read by the Envision microplate reader in 2 channels using the “Geneblazer 451” protocol, which include a blue channel (Excitement at 405 and Emission at 460) and a green channel (Excitement at 405 and Emission at 535).
FIGS. 45-70 show the NK-1 dosage response curves of compounds described hereinabove with high NK-1 inhibitory effect.

[3] = target: T2, h5HT3A receptor (Homo sapiens, UniProt P46098); experiment: Assays for screening 5-HT3a receptor inhibitors (FLIPR calcium assay or aequorin-assisted serotonin receptor assay; dosage response curves); format: cell-based
T2 construct: expressed in transfected cells
T2 sequence (P46098 24-478): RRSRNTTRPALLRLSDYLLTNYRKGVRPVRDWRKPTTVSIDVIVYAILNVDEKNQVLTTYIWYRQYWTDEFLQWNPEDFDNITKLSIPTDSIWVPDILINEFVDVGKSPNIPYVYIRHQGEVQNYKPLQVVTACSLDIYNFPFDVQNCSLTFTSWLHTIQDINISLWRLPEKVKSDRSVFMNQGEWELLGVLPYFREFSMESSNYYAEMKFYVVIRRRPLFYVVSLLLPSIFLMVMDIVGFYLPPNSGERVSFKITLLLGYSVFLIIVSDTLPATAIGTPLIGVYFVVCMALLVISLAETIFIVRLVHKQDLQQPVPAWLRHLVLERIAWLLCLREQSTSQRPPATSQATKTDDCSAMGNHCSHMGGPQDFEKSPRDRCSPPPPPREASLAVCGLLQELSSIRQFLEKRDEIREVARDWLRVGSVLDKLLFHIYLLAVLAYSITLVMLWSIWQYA
Source text: Various known high through-put screening assays can be used to determine the inhibitory effects of a material on the 5-HT3a receptors.
Due to activation of 5HT3 receptor following calcium and sodium influx and the subsequent rapid intracellular calcium and sodium increase, a calcium indicator (e.g., Fluo-4 AM) or a sodium dye can therefore be readily used to detect influx Ca^+2 or Na^+ signal using the Flourometric Imaging Plate Reader (FLIPR) assay to identify agonists or antagonists of 5-HT3a receptors.
The 5-HT3a FLIPR assay can specifically be conducted by the following steps. First, […] (human embryonic kidney) cells stably expressed with h5HT3A receptor are grown in 16-18 ml growth medium in a 75 cm^2 flask for 2-3 days at 37° C. in a mammalian cell culture incubator with 5% CO2 and 90% humidity. The growth medium may contain, for example, DMEM/F12 (1:1, Invitrogen 11039) supplemented with 10% FBS (fetal bovine serum), 100 μg/ml Antibiotic/Antimycotic, and 150 ug/ml G418. The cell medium is then transferred to a 50 ml tube, and the cells are washed with 10 ml PBS. Subsequently, 2 ml of 0.05% Trypsin-EDTA is added to detach cells, and the above cell medium is added back to flask to inactivate trypsin. Next, the cells are transferred back to the above 50 ml tube, which is centrifuged at 850 rpm for 3 minutes to remove medium. The cells obtained from centrifugation are then re-suspended with growth medium at 1-1.5 ml per flask cells. One vial of Fluo-4 AM (calcium indicator, 50 ug) is subsequently dissolved with 20 ul of Pluronic F-127, and 10 ul of Fluo-4 AM solution per flask cells is added (1 vial of Fluo-4 AM solution, 20 ul, is good for 2 flask of cells). The cells are then stained with Fluo-4 AM for 30 min at room temperature with gently shaking on a shaker, followed by addition of 45 ml of the assay buffer [HBSS with CaCl2 and MgCl2 (Invitrogen 14025), 20 mM HEPES, pH7.2] to wash cells once. Centrifugation is carried out once more at 850 rpm for 3 minutes to remove assay buffer. The resulting cell pellet is again re-suspended in Assay buffer (per flask cells with 18-20 ml assay buffer). Ninety microliters of cells (50K cells/well) is loaded in the 96-well plates that are pre-loaded with the compounds to be tested (10 ul of 1 mM test materials, the final concentration of the test materials will be 100 uM). The plates are placed at room temperature for 15-30 min in dark and then transferred to FLIPR-384 instrument (Molecular Devices). […] The calcium signal of the test plates is finally recorded by the FLIPR program. The average and standard deviations are calculated using Excel, and the background (buffer) is subtracted. The percentage (%) inhibition is then calculated as
[formula] A test material will be considered as having an inhibitory effect against the 5-HT3a receptor if the percentage inhibition calculated is greater than 40%.
Aequorin is a photo-protein originating from the Jellyfish Aequorea Victoria. It is initially translated as an apo-enzyme requiring the hydrophobic group coelenterazine to initiate the conversion to aequorin. Upon binding of calcium, the coelenterazine is oxidized by aequorin into coelenteramide (BFP) resulting in the emission of blue light and CO2. Therefore, it is particularly useful for visualizing or detecting influx Ca^+2 signal.
After 18-24 h of culture, the cells are detached gently by flushing with their cell culture medium. Washing with an additional 10 mLs of cell culture media will ensure that optimum number of cells is captured. The cells are then centrifuged at 150×g, counted and re-suspended at 1×10^6 cells/mL in BSA medium [DMEM/Ham's F12 (with 15 mM HEPES, L-glutamine, without phenol red) culture medium (Invitrogen, Cat. No. 11039-021)+10% protease-free BSA (Sigma Aldrich, Cat. No. A9205) in H2O with a final BSA concentration of 0.1%] in a Falcon tube. Coelenterazine is added at a final concentration of 5 μM in assay medium.

T1 sequence (P25103 whole entry): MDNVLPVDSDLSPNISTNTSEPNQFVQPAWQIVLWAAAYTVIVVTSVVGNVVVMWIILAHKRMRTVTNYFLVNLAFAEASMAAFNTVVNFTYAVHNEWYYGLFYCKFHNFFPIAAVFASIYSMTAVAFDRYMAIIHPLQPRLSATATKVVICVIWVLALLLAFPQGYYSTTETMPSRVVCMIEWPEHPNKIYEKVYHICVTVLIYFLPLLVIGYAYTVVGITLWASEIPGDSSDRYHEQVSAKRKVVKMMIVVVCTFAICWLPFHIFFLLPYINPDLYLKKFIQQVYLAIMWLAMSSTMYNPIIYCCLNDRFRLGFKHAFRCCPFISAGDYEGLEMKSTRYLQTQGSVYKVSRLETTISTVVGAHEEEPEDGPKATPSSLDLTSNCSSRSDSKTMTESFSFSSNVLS

Compound | NK-1 receptor inhibitory effect [2] | 5-HT3a receptor inhibitory effect [3] | cell toxicity [1]
O=c1c(O)c(-c2ccccc2)oc2ccc(O)cc12 [3,6-Dihydroxyflavone] | surprisingly high | surprisingly high | little or no
O=C(/C=C/c1ccc(O)cc1)c1ccccc1 [4-Hydroxychalcone] | surprisingly high | surprisingly high | little or no
CC1(C)[C@@H](O)CC[C@]2(C)[C@H]3C(=O)C=C4[C@@H]5C[C@@](C)(C(=O)O)CC[C@]5(C)CC[C@@]4(C)[C@]3(C)CC[C@@H]12 [18-Beta-glycyrrhetic acid] | surprisingly high | surprisingly high | little or no
C[C@H]1[C@H](C)CC[C@]2(C(=O)O)CC[C@]3(C)C(=CC[C@@H]4[C@@]5(C)C[C@@H](O)[C@H](O)[C@@](C)(CO)[C@@H]5CC[C@]43C)[C@H]12 [Asiatic acid] | surprisingly high | surprisingly high | little or no
COC1=C(OC)C(=O)C(C)=CC1=O [Ubiquinone-O] | surprisingly high | surprisingly high | little or no

More lines, main results first:

NK-1 receptor inhibitory effect [2] | 5-HT3a receptor inhibitory effect [3] | Compound | cell toxicity [1]
surprisingly high | surprisingly high | CCCCCCCCCCCCCCCC(=O)OC(CC(=O)O)C[N+](C)(C)C.[Cl-] (racemic) [DL-palmitoylcarnitine chloride] | little or no
surprisingly high | surprisingly high | COc1cc(/C=C/C(=O)CC(=O)/C=C/c2ccc(O)c(OC)c2)ccc1O [Curcumin] | –
surprisingly high | surprisingly high | O=c1cc(-c2ccc(O)c(O)c2)oc2cc(O)cc(O)c12 [Luteolin] | little or no
surprisingly high | surprisingly high | Oc1ccc(C=Cc2cc(O)cc(O)c2)cc1 [Resveratrol] | –
